The target in assay [1] is T1, Delta-5-Desaturase (D5D), membrane preparations of D5D-overexpressing HEK293 6E cells (Homo sapiens, UniProt O60427).
T1 construct: expressed in transfected cells; host or cells: HEK293 6E cells (membrane preparation)
Briefly: In vitro measurement of Delta-5-Desaturase inhibitory activity using DGLA-CoA and Arachidonyl-CoA mass spectrometric assays. Type of assay: biochemical. As to conditions: D5D membrane 10 μg/mL, one-hour incubation, average of at least two independent runs. The procedure, abridged: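 Membranes from D5D-overexpressing HEK293 6E cells (10 μg/mL final) in pH 7.5 Tris buffer with MgCl2, octyl glucoside and TCEP were run with substrate solution holding 0.01 mM DGLA, NADH, ATP and CoA for 1 h at ambient temperature. Acetonitrile quench; DGLA-CoA and arachidonyl-CoA measured by RapidFire MRM-MS; 4-parameter IC50, ≥2 runs averaged.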

Assay [2] deals with Diet-Induced Obese (DIO) mice. Kind of assay: Assessment of D5D inhibitor in Diet-Induced Obese (DIO) mice. It is filed as in vivo, Male C57BL/6J DIO mice. The note with it: for Fat mass / Lean mass: day 22, EchoMRI; for Blood glucose: day 25, 4 hour fasted; for AA / Cholesterol / DGLA / Insulin / LDL cholesterol / Triglycerides: day 25, 4 hour fasted plasma; for Body weight / Liver weights / epididymal WAT / inguinal WAT: day 27. The text has this: Assessment of D5D Inhibitor in Diet-Induced Obese (DIO) Mice
Male C57BL/6J DIO mice (Jackson Laboratories, Stock No.: 380050) were fed high-fat diet (Research Diets, Inc., D12492) for 12 weeks. All animals were given free access to water and chow. Animals were acclimated to per os dosing for 3 days prior to the start of the experiment. Animals were randomized on body weight, fat mass, lean mass, and blood glucose concentrations in to groups of 8 to 10 animals per group. Animals were twice daily dosed per os with either: vehicle (2% hydroxypropyl methylcellulose and 1% tween 80 in water), Example 2 at 10 mg/kg, or 30 mg/kg (formulated in 2% hydroxypropyl methylcellulose and 1% tween 80 in water), or Example 45 at 3 mg/kg, or 10 mg/kg (formulated in 2% hydroxypropyl methylcellulose and 1% tween 80 in water). Three-day average (Example 2) or daily average (Example 45) food consumption was measured at the indicated times as shown in Table 17 and Table 18. Body composition (EchoMRI) was determined on day 78 for Example 2 and day 22 for Example 45. For Example 2, a non-fasted blood collection was performed on day 81; blood glucose was immediately measured, and plasma samples created from the remaining blood and used to measure DGLA and AA concentrations. On day 84, a 4-hour fasted blood collection was performed, and plasma samples were created from the blood and used to measure cholesterol, triglycerides, low-density lipoprotein (LDL) cholesterol, insulin, and adipokine (adiponectin, leptin, and resistin) levels. For Example 45, 4 hour fasted blood samples were collected on day 25 and blood glucose was measured immediately and the plasma samples created from the remaining blood were used to measure cholesterol, triglycerides, LDL cholesterol, insulin, DGLA and AA concentration. At the end of the studies, liver, epididymal white adipose tissue, inguinal white adipose tissue, mesenteric (only Example 2) white adipose tissue weights were recorded. Data was analyzed using GraphPad Prism v 7.04.
The D5D inhibitor dose-dependently led to weight loss over the course of the experiment (Table 17 and Table 18) compared to vehicle controls. Consistently fat mass was reduced, along with lower inguinal, epididymal and mesenteric white adipose tissue (WAT) weights at necropsy. Blood glucose and plasma insulin levels were both reduced by the D5D inhibitor, along with reductions in plasma cholesterol and triglycerides. Evidence of target engagement was established by observing increases in plasma DGLA and decreases in plasma AA.

The target of the next assay is T2, Delta-5-Desaturase (D5D) (Mus musculus, UniProt Q920L1).
T2 construct: tissue Jackson Laboratories strain #3800050; host or cells: whole animal (DIO mice)
T2 sequence (Q920L1 1-447): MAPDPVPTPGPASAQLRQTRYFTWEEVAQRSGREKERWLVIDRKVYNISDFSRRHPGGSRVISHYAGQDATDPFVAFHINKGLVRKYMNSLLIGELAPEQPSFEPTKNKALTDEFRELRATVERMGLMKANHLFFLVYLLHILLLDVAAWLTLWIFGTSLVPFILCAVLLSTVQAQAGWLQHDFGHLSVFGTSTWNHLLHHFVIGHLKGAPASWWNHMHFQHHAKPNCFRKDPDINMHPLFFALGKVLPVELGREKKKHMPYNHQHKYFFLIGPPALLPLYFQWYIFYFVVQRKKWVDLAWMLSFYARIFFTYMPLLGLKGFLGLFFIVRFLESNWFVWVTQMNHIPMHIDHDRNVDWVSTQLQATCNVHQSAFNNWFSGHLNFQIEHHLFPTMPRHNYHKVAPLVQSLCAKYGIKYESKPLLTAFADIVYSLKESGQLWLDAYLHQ
Briefly: In vivo measurement of Delta-5-Desaturase inhibitory activity (plasma AA/DGLA ratio in DIO mice). As to conditions: single oral dose 30 mg/kg, relative to vehicle group. The procedure: In Vivo Measurement of Delta-5-Desaturase Inhibitory Activity
Diet-induced obese (DIO; Jackson Laboratories strain #[…]) mice were used to screen for pharmacodynamic (PD) activity of test compounds. Generally, 14 to 24 week old DIO mice, were administered test compounds formulated in the vehicle of 2% hydroxypropyl methylcellulose (HPMC) and 1% Tween80. Animals were dosed on body weight by oral gavage with a single dose (30 mg/kg) for PD studies. Necropsy included plasma collection for PUFA analysis. 10 μl of plasma or standards diluted in surrogate matrix (65 g/l bovine serum albumin in Dulbecco's phosphate-buffered saline) were mixed with 10 μl of an internal standard (100 μM alpha-linolenic acid-d14 (ALA-d14, Cayman Chemical)) in a 96 well plate. 100 μl of 2N NAOH was added to the mixture for subsequent saponification at 65° C. for 1 hour. The mixture was then acidified with 50 μl of formic acid followed by two consecutive hexane extractions. Hexane (500 μl) was added and the mixture thoroughly mixed by vortexing, followed by centrifugation at 4,000 rpm for 15 min. The hexane phase was transferred to a new 1 ml 96 well plate and the remaining aqueous layer was extracted with hexane. The organic extracts were combined and the solvent was removed by placing the plate under nitrogen gas at 55° C. 250 μl of 90% methanol was added to the plate followed by vortexing for 2 minutes. 200 μl of the samples were transferred to a new 96 well polypropylene plate. The samples were analyzed on a LC-MS/MS for the following PUFAs: arachidonic acid (AA), dihomo-gamma-linolenic acid (DGLA), with ALA-d14 as the internal standard. Description of the LC-MS/MS method: 5 μl of sample was injected onto a Poroshell 120 EC-C18 3.0×50 mm, 1.9 μm id column. […] The PUFA peak areas were quantified by using the SCIEX Analyst software. […] The relative decrease of the AA/DGLA ratio of the test compound administered group relative to the vehicle administered group was calculated and used as an index for the degree of D5D inhibition. […]

[3] abbreviates: Example 45 3 mg/kg twice daily per os.
Setting [4] is: Example 45 10 mg/kg twice daily per os.

T1 sequence (O60427 whole entry, species assumed): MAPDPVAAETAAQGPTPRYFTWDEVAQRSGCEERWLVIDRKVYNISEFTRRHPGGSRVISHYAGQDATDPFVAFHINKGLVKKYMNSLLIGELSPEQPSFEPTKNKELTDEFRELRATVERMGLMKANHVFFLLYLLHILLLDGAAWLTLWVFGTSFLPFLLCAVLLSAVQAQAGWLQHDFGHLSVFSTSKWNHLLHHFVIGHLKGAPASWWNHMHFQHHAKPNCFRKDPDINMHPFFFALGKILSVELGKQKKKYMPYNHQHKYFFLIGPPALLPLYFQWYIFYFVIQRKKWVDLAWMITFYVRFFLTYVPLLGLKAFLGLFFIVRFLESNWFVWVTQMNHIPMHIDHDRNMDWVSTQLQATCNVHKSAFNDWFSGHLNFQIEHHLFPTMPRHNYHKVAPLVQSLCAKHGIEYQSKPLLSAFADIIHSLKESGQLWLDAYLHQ

Consider `O=c1c(-c2cnn(CC(F)(F)C(F)(F)F)c2)c(C(F)(F)F)nc2sc(CO)nn12` [Example 45, 2-(hydroxymethyl)-6-[1-(2,2,3,3,3-pentafluoropropyl)-1H-pyrazol-4-yl]-7-(trifluoromethyl)-5H-[1,3,4]thiadiazolo[3,2-a]pyrimidin-5-one], for which, in assay [1], the IC50 is 21.1 nM. The same compound came in with a Food consumption in assay [2] (Example 45 3 mg/kg twice daily per os, day 0, daily average) of 2.5 ± 0.3 g/day. Moreover, in assay [2] (Example 45 3 mg/kg twice daily per os, day 7, daily average), the Food consumption is reported as 3.0 ± 0.3 g/day. The same compound gave a Food consumption in assay [2] (Example 45 3 mg/kg twice daily per os, day 14, daily average) of 2.7 ± 0.3 g/day. In assay [2] (Example 45 3 mg/kg twice daily per os, day 21, daily average), this compound gave a Food consumption of 2.7 ± 0.2 g/day. In assay [2] (setting [3]), this compound yielded a Fat mass of 19.7 ± 2.2 g, a Lean mass of 27.4 ± 1.5 g, a Blood glucose of 176.1 ± 9.4 mg/dL and an AA of 88.6 ± 18.9 µg/mL. For the same compound, in assay [2] (setting [3]), the Cholesterol is listed as 160.4 ± 43.7 mg/dL, the DGLA stood at 286.9 ± 47.7 µg/mL, the Insulin was found to be 7.2 ± 1.8 ng/mL and the LDL cholesterol was 130.6 ± 25.1 mg/dL. For the same compound, in assay [2] (setting [3]), the Triglycerides is given as 32.6 ± 5.2 mg/dL, the Body weight amounted to 47.8 ± 2.8 g, the Liver weights is listed as 2.6 ± 0.4 g and the “epididymal WAT” value stood at 1.8 ± 0.3 g. Moreover, the “inguinal WAT” value in assay [2] (setting [3]) is 2.2 ± 0.5 g. In assay [2] (Example 45 3 mg/kg twice daily per os, day 27, daily average), this compound showed a Food consumption of 2.5 ± 0.2 g/day. Also, in assay [2] (Example 45 10 mg/kg twice daily per os, day 0, daily average), the Food consumption is given as 2.6 ± 0.3 g/day. Further, the Food consumption in assay [2] (Example 45 10 mg/kg twice daily per os, day 7, daily average) was 2.6 ± 0.3 g/day. Besides, the Food consumption in assay [2] (Example 45 10 mg/kg twice daily per os, day 14, daily average) was found to be 2.4 ± 0.2 g/day. The Food consumption in assay [2] (Example 45 10 mg/kg twice daily per os, day 21, daily average) is 2.5 ± 0.2 g/day. In assay [2] (setting [4]), this compound displayed a Fat mass of 16.9 ± 2.3 g, a Lean mass of 26.7 ± 1.1 g, a Blood glucose of 156.1 mg/dL and an AA of 38.2 ± 3.6 µg/mL. In assay [2] (setting [4]), this compound displayed a Cholesterol of 162.8 mg/dL, a DGLA of 212.6 µg/mL, an Insulin of 5.2 ± 0.7 ng/mL and an LDL cholesterol of 129.0 mg/dL. Moreover, in assay [2] (setting [4]), the Triglycerides is listed as 26.3 ± 5.5 mg/dL, the Body weight stood at 43.8 ± 3.1 g, the Liver weights is 2.6 ± 0.5 g and the “epididymal WAT” value is given as 1.7 ± 0.3 g. The “inguinal WAT” value in assay [2] (setting [4]) came to 1.9 ± 0.2 g. This compound also displayed a Food consumption in assay [2] (Example 45 10 mg/kg twice daily per os, day 27, daily average) of 2.4 ± 0.2 g/day.
Regarding `Cc1cn2c(=O)c(-c3cnn(CC(F)(F)C(F)(F)F)c3)c(C(F)(F)F)nc2n1C` [Example 52, 1,2-dimethyl-6-[1-(2,2,3,3,3-pentafluoropropyl)-1H-pyrazol-4-yl]-7-(trifluoromethyl)-1H,5H-imidazo[1,2-a]pyrimidin-5-one], in assay [1], inhibition was half-maximal at 47.5 nM (IC50). Further, the “Average % D5D Inhibition expressed as Plasma Endogenous AA/DGLA Ratio” value at Delta-5-Desaturase (D5D) is on record as 74%.
Turning to `Cn1c(Cl)cn2c(=O)c(-c3cnn(CC(F)(F)C(F)(F)F)c3)c(C(F)(F)F)nc12` [Example 48, 2-chloro-1-methyl-6-[1-(2,2,3,3,3-pentafluoropropyl)-1H-pyrazol-4-yl]-7-(trifluoromethyl)-1H,5H-imidazo[1,2-a]pyrimidin-5-one], the IC50 in assay [1] is 6.8 nM. Also, the “Average % D5D Inhibition expressed as Plasma Endogenous AA/DGLA Ratio” value on Delta-5-Desaturase (D5D) is recorded as 68%.
As to `O=c1c(-c2cnn(CC(F)(F)C(F)(F)F)c2)c(C(F)(F)F)nc2sc(CF)nn12` [Example 104, 2-(fluoromethyl)-6-[1-(2,2,3,3,3-pentafluoropropyl)-1H-pyrazol-4-yl]-7-(trifluoromethyl)-5H-[1,3,4]thiadiazolo[3,2-a]pyrimidin-5-one], the IC50 in assay [1] worked out at 100 nM.
In assay [1], `Cn1cnn2c(=O)c(-c3cnn(CC(F)(F)C(F)(F)F)c3)c(C(F)(F)F)nc12` [Example 38, 3-methyl-6-[1-(2,2,3,3,3-pentafluoropropyl)-1H-pyrazol-4-yl]-5-(trifluoromethyl)-3H,7H-[1,2,4]triazolo[1,5-a]pyrimidin-7-one] registered an IC50 of 67.3 nM.
As to `Cc1cn2c(=O)c(-c3cnn(CCC(F)(F)F)c3)c(C(F)(F)F)nc2n1-c1ccccn1` [Example 94, 2-methyl-1-(pyridin-2-yl)-7-(trifluoromethyl)-6-[1-(3,3,3-trifluoropropyl)-1H-pyrazol-4-yl]-1H,5H-imidazo[1,2-a]pyrimidin-5-one], the IC50 in assay [1] came out at 777 nM.
As to `Cc1nn2c(=O)c(-c3cnn(CC4CC(F)(F)C4)c3)c(C(F)(F)F)nc2s1` [Example 26, 6-{1-[(3,3-difluorocyclobutyl)methyl]-1H-pyrazol-4-yl}-2-methyl-7-(trifluoromethyl)-5H-[1,3,4]thiadiazolo[3,2-a]pyrimidin-5-one], inhibition in assay [1] was half-maximal at 104 nM (IC50).
Same read-out and setting: for `Cc1nn2c(=O)c(-c3cnn(CCC(F)(F)F)c3)c(C(F)(F)F)nc2s1` [Example 20, 2-methyl-7-(trifluoromethyl)-6-[1-(3,3,3-trifluoropropyl)-1H-pyrazol-4-yl]-5H-[1,3,4]thiadiazolo[3,2-a]pyrimidin-5-one] the value was 32.9 nM.
